The values that follow come from patent publication US20230117470A1, “SUBSTITUTED PYRAZOLE COMPOUNDS AS TOLL RECEPTOR INHIBITORS” (BRISTOL-MYERS SQUIBB COMPANY, priority 2019, published 2023).

Holding throughout (assay type): cell-based
One test deals with T1, human TLR8 (Homo sapiens, UniProt Q9NR97).
T1 construct: host or cells: HEK-Blue cells
T1 sequence (Q9NR97 27-1041): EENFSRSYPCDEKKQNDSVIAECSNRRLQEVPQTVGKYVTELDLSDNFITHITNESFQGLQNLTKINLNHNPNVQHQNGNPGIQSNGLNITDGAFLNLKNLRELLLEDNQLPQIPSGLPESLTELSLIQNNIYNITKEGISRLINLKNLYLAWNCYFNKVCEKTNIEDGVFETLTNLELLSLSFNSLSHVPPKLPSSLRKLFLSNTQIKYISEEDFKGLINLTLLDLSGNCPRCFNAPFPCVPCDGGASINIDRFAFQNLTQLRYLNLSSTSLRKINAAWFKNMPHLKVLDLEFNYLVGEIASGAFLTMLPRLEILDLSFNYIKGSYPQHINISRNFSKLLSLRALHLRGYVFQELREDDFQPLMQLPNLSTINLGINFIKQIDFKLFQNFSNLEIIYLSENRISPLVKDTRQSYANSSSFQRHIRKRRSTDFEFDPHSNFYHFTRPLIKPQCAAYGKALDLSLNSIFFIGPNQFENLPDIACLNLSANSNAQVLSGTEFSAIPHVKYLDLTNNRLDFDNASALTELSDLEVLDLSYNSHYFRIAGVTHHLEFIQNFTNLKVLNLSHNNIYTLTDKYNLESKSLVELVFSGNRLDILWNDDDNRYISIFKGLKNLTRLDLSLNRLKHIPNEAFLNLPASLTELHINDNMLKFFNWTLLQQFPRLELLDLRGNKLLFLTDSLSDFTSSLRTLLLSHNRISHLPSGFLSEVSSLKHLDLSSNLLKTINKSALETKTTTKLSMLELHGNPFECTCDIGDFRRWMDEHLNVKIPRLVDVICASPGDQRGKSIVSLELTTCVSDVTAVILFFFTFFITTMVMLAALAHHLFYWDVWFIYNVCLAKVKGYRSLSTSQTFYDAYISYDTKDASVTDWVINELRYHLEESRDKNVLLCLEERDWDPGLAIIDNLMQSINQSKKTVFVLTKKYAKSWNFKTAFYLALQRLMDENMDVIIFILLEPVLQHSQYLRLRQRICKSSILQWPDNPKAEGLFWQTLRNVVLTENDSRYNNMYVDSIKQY
Description: TLR8 inhibition reporter assay (HEK-Blue cells, SEAP reporter, R848 stimulation). To be noted: HEK-Blue cells overexpressing human TLR8, SEAP reporter, R848 15.9 μM. In outline:
(§1)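 Percent inhibition of agonist-induced SEAP, set between agonist+DMSO wells and known-inhibitor wells, after 22 h at 37° C. Compounds (0.05 nM-50 μM final) were added 30 min at room temperature before ligand: gardiquimod 7.5 μM for TLR7, R848 15.9 μM for TLR8, ODN2006 5 nM for TLR9. Human receptors overexpressed in HEK-Blue reporter cells.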
In general terms: Reporter assays use an easily measured gene product as a stand-in for the process of interest.

Another test deals with T2, human TLR7 (Homo sapiens, UniProt Q9NYK1).
T2 construct: host or cells: HEK-Blue cells
T2 sequence (Q9NYK1 27-1049): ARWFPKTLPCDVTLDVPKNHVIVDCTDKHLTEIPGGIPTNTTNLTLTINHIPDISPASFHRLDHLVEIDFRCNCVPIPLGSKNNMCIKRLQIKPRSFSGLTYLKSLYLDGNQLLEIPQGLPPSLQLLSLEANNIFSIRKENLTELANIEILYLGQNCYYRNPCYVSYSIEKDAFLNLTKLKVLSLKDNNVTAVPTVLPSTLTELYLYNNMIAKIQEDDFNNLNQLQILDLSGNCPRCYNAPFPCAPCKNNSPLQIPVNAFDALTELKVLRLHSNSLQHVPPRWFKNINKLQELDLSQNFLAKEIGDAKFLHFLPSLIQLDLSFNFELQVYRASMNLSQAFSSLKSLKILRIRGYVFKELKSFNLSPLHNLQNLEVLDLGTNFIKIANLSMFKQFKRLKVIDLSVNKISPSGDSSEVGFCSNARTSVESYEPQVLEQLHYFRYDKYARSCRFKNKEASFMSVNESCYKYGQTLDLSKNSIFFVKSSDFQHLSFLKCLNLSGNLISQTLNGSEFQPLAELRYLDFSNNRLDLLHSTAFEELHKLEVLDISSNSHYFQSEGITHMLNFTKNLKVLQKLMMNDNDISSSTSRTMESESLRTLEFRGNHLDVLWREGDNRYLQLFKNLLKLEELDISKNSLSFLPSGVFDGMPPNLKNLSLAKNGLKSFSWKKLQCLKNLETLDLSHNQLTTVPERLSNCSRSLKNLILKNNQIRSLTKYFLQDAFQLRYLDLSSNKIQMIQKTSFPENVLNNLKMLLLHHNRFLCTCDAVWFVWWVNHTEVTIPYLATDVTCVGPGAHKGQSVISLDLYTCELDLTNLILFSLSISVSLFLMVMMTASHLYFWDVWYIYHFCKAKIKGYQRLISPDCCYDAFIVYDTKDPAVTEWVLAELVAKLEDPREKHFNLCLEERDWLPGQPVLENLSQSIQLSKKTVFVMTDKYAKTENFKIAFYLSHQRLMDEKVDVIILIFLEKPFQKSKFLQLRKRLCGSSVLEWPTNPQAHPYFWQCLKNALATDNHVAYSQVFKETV
In words: TLR7 inhibition reporter assay (HEK-Blue cells, SEAP reporter, gardiquimod stimulation). The conditions noted are these: HEK-Blue cells overexpressing human TLR7, SEAP reporter, gardiquimod 7.5 μM. In outline:
as §1

The target in the next test is T3, human TLR9 (Homo sapiens, UniProt Q9NR96).
T3 construct: host or cells: HEK-Blue cells
T3 sequence (Q9NR96 26-1032): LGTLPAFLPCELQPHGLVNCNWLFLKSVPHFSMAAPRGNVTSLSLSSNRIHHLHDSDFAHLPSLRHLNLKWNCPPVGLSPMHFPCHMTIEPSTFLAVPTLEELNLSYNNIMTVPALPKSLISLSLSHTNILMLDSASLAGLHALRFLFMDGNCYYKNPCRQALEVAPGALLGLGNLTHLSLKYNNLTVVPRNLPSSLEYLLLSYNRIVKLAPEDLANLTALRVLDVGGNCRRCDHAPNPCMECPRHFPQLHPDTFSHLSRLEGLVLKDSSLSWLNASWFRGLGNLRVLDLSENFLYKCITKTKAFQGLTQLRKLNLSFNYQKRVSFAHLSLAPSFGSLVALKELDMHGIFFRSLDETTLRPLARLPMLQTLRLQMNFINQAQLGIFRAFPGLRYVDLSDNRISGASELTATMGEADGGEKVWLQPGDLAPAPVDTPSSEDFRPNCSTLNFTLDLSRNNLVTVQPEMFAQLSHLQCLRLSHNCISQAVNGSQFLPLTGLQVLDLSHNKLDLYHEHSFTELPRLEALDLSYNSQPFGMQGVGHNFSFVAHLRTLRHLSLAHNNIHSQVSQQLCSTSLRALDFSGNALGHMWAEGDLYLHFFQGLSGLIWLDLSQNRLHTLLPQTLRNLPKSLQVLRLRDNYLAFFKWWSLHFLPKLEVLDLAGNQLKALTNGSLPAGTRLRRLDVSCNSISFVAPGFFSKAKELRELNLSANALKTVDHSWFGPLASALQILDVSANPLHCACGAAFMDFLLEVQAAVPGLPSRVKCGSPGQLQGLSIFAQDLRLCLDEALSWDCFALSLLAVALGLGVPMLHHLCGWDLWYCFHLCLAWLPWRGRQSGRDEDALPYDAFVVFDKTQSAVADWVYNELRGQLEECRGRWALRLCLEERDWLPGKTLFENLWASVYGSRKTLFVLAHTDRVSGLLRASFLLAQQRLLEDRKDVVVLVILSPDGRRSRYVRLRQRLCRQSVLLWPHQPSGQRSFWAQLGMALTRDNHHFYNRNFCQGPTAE
In words: TLR9 inhibition reporter assay (HEK-Blue cells, SEAP reporter, ODN2006 stimulation). To be noted: HEK-Blue cells overexpressing human TLR9, SEAP reporter, ODN2006 5 nM. In outline: as §1

The structures appear in SMILES notation. Bounds are passed on as bounds.

For orientation: IC50 means the concentration needed to halve the response being measured. Higher therefore signals weaker potency. As to `Cc1cc(-c2[nH]nc(-c3ccc(N4CC(NC(C)C)C4)cc3)c2C(C)C)cn2ncnc12` [Example 409], the IC50 against human TLR8 worked out at 345 nM; at human TLR7 it was 48.2 nM; against human TLR9 it was 9760 nM.

In the case of `COc1cc(-c2[nH]nc(C(=O)NCC(C)(C)N3CCOCC3)c2C(C)C)cn2ncnc12` [Example 26], the figures for the IC50 against human TLR8, against human TLR7 and against human TLR9 were 413 nM, 442 nM and 7210 nM, respectively.

`CCC(CC)CN[C@H]1CC[C@H](NC(=O)c2n[nH]c(-c3cc(C)c4ncnn4c3)c2C(C)C)CC1` [Example 110]: the IC50 worked out at 0.93 nM at human TLR8, 2.21 nM against human TLR7 and 5780 nM at human TLR9.

Consider `Cc1cc(-c2[nH]nc(C(=O)N[C@H]3CC[C@H](NC(C)C(C)(C)C)CC3)c2C(C)C)cn2ncnc12` (stereo partly drawn) [Example 148], for which the IC50 was 9.93 nM against human TLR8, 11.8 nM at human TLR7 and above 50000 nM against human TLR9.

In the case of `COc1cc(-c2[nH]nc(-c3cnc(C4CCN(CC(=O)N(C)C)CC4)cn3)c2C(C)C)cn2ncnc12` [Example 401], the concentration for half-maximal inhibition (IC50) on human TLR8 turned out to be 35.7 nM; against human TLR7 it was 36.9 nM; against human TLR9 it was 13500 nM.

`COc1cc(-c2[nH]nc(-c3ccc(C4CCNCC4)cn3)c2C(C)C)cn2ncnc12` [Example 339, 6-(4-isopropyl-3-(5-(piperidin-4-yl)pyridin-2-yl)-1H-pyrazol-5-yl)-8-methoxy-[1,2,4]triazolo[1,5-a]pyridine]: the IC50 on human TLR8 is 3.86 nM; on human TLR7 it was 19.9 nM; at human TLR9, 36600 nM.

For the compound `COc1cc(-c2[nH]nc(-c3cnc(C4CCN(CCS(C)(=O)=O)CC4)cn3)c2C(C)C)cn2ncnc12` [Example 397], the IC50 was 463 nM at human TLR8, 221 nM on human TLR7 and above 50000 nM against human TLR9.

Turning to `COc1cc(-c2[nH]nc(-c3cnc(C4CCN(CCF)CC4)cn3)c2C(C)C)cn2ncnc12` [Example 398], the results for the IC50 on human TLR8, on human TLR7 and against human TLR9 were 365 nM, 137 nM and above 50000 nM, respectively.

Consider `CNC(=O)c1n[nH]c(-c2cc(C)c3ncnn3c2)c1C(C)C` [Example 27], for which the IC50 on human TLR8 was found to be 2.87 nM; against human TLR7 it was 29.7 nM; against human TLR9, 388 nM.

Turning to `Cc1cc(-c2[nH]nc(C(=O)NC3CCN(C4CCOCC4)CC3)c2C(C)C)cn2ncnc12` [Example 153], the IC50 against human TLR8 was 6.62 nM; at human TLR7, 27.8 nM; at human TLR9, 22300 nM.

Take `CCN1CCC(c2ccc(-c3n[nH]c(-c4cc(OC)c5ncnn5c4)c3C(C)C)cc2)CC1` [Example 315]: the IC50 against human TLR8 was 20.2 nM; against human TLR7, 5.22 nM; against human TLR9, above 50000 nM.

`Cc1cc(-c2[nH]nc(C(=O)N[C@H]3CC[C@H](NC4CCOC(C)(C)C4)CC3)c2C(C)C)cn2ncnc12` (stereo partly drawn) [Example 115]: the IC50 against human TLR8 is 17 nM; against human TLR7, 11.7 nM; against human TLR9 it was 1210 nM.

Take `Cc1cc(-c2[nH]nc(-c3ncc4c(n3)CCNC4)c2C(C)C)cn2ncnc12` [Example 222]: the IC50 against human TLR8 is 1.94 nM; at human TLR7, 0.75 nM; against human TLR9 it was 30400 nM.

Regarding `COc1cc(-c2[nH]nc(-c3cnc(C4CCN(CC5CC5)CC4)cn3)c2C(C)C)cn2ncnc12` [Example 378], the IC50 against human TLR8 was 12.2 nM; on human TLR7, 29.4 nM; against human TLR9 it was above 50000 nM.

Turning to `CNCCN1CCC(NC(=O)c2n[nH]c(-c3cc(C)c4ncnn4c3)c2C(C)C)CC1` [Example 170], the IC50 is 4.65 nM against human TLR8, 2.38 nM against human TLR7 and 1760 nM at human TLR9.

For `Cc1cc(-c2[nH]nc(C3CCC(N(C)C(=O)C4CN(C)C4)CC3)c2C(C)C)cn2ncnc12` (single isomer, unassigned) [Example 302], the IC50 against human TLR8 is 14.2 nM; on human TLR7, 9.44 nM; on human TLR9, above 50000 nM.

Consider `COc1cc(-c2[nH]nc(-c3cnc(C4CCN(C5CCOCC5)CC4)cn3)c2C(C)C)cn2ncnc12` [Example 380], for which the values for the IC50 at human TLR8, against human TLR7 and against human TLR9 were 5.07 nM, 11.5 nM and 6520 nM, respectively.
